How the values were obtained:
Settings in all cases: 48 h
SEM cells [1] = experiment: cell viability relative to DMSO control; higher = less cytotoxic
How it was run: (§1)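 In 1536-well plates, 5 μl of leukemia cells were seeded per well: 500 cells/well for NOMO1 or SEM and 1000 cells/well for P12-Ichikawa. Each line had first been adapted for at least four passages in each medium. Library compounds in DMSO were pin-dosed at 11 threefold concentrations between 47 μM and 0.79 nM, and CellTiter-Glo One luminescence was read after 48 h at 37°C. Viability is a per-plate percentage relative to DMSO wells, with cell-free wells as background.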

NOMO1 [2] = experiment: as above
How it was run: as §1

P12-Ichikawa [3] = experiment: as above
How it was run: as §1

SEM cells [4] = experiment: AUC of viability dose-response curve (% viability x log10 dose units); higher = less sensitive
How it was run: (§2)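 Leukemia cells adapted to each medium (500 or 1000 cells/well, 1536-well plates) were exposed to library compounds in DMSO for 48 h at 37°C at 11 threefold doses, 47 μM to 0.79 nM. Luminescence by CellTiter-Glo One was normalised per plate to DMSO and cell-free wells, then fitted with a four-parameter log-logistic curve on log10 dose. Curves above full viability were scaled and quality-control failures removed before area under the curve was integrated by trapezoidal rule.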

NOMO1 [5] = experiment: as above
How it was run: as §2

P12-Ichikawa [6] = experiment: as above
How it was run: as §2

COc1ccc(C(=O)c2c(C)n(CCN3CCOCC3)c3cc(I)ccc23)cc1
cell viability [%]
Settings	NOMO1 [2]	P12-Ichikawa [3]	SEM cells [1]
HPLM + 10% dialyzed FBS, 0.000781 µM	–	106	85.3
HPLM + 10% dialyzed FBS, 0.00234 µM	–	113	102
HPLM + 10% dialyzed FBS, 0.00702 µM	–	113	111
HPLM + 10% dialyzed FBS, 0.0211 µM	–	124	109
HPLM + 10% dialyzed FBS, 0.0632 µM	–	124	105
HPLM + 10% dialyzed FBS, 0.19 µM	–	121	110
HPLM + 10% dialyzed FBS, 0.569 µM	–	119	103
HPLM + 10% dialyzed FBS, 1.71 µM	–	120	93.8
HPLM + 10% dialyzed FBS, 5.12 µM	–	39.7	98.5
HPLM + 10% dialyzed FBS, 15.4 µM	–	13.7	91.7
HPLM + 10% dialyzed FBS, 46.1 µM	–	9.27	66.4
RPMI 5 mM glucose + 10% FBS, 0.000781 µM	105	115	88
RPMI 5 mM glucose + 10% FBS, 0.00234 µM	112	121	108
RPMI 5 mM glucose + 10% FBS, 0.00702 µM	126	128	104
RPMI 5 mM glucose + 10% FBS, 0.0211 µM	133	122	93.6
RPMI 5 mM glucose + 10% FBS, 0.0632 µM	138	129	106
RPMI 5 mM glucose + 10% FBS, 0.19 µM	122	124	111
RPMI 5 mM glucose + 10% FBS, 0.569 µM	119	133	107
RPMI 5 mM glucose + 10% FBS, 1.71 µM	29.9	130	111
RPMI 5 mM glucose + 10% FBS, 5.12 µM	27.1	41.6	96.4
RPMI 5 mM glucose + 10% FBS, 15.4 µM	24.9	14.3	95.1
RPMI 5 mM glucose + 10% FBS, 46.1 µM	21.1	12.3	52
RPMI 5 mM glucose + 10% dialyzed FBS, 0.000781 µM	100	102	102
RPMI 5 mM glucose + 10% dialyzed FBS, 0.00234 µM	115	110	93.5
RPMI 5 mM glucose + 10% dialyzed FBS, 0.00702 µM	124	130	117
RPMI 5 mM glucose + 10% dialyzed FBS, 0.0211 µM	116	118	115
RPMI 5 mM glucose + 10% dialyzed FBS, 0.0632 µM	130	129	115
RPMI 5 mM glucose + 10% dialyzed FBS, 0.19 µM	126	134	123
RPMI 5 mM glucose + 10% dialyzed FBS, 0.569 µM	137	131	132
RPMI 5 mM glucose + 10% dialyzed FBS, 1.71 µM	52.3	126	129
RPMI 5 mM glucose + 10% dialyzed FBS, 5.12 µM	29.1	94.2	107
RPMI 5 mM glucose + 10% dialyzed FBS, 15.4 µM	27.4	32.8	99.1
RPMI 5 mM glucose + 10% dialyzed FBS, 46.1 µM	23.3	14.9	60.3

AUC of viability dose-response curve
Settings	NOMO1 [5]	P12-Ichikawa [6]	SEM cells [4]
HPLM + 10% dialyzed FBS	354	381	461
RPMI 5 mM glucose + 10% FBS	344	381	461
RPMI 5 mM glucose + 10% dialyzed FBS	357	409	458

N[C@@H]1CONC1=O
cell viability [%]
Settings	NOMO1 [2]	P12-Ichikawa [3]	SEM cells [1]
HPLM + 10% dialyzed FBS, 0.000781 µM	90.7	97.7	99.7
HPLM + 10% dialyzed FBS, 0.00234 µM	110	108	100
HPLM + 10% dialyzed FBS, 0.00702 µM	112	101	103
HPLM + 10% dialyzed FBS, 0.0211 µM	101	105	97.7
HPLM + 10% dialyzed FBS, 0.0632 µM	99.4	109	104
HPLM + 10% dialyzed FBS, 0.19 µM	107	106	109
HPLM + 10% dialyzed FBS, 0.569 µM	104	109	107
HPLM + 10% dialyzed FBS, 1.71 µM	110	112	98.5
HPLM + 10% dialyzed FBS, 5.12 µM	107	114	104
HPLM + 10% dialyzed FBS, 15.4 µM	94.4	100	103
HPLM + 10% dialyzed FBS, 46.1 µM	105	110	118
RPMI 5 mM glucose + 10% FBS, 0.000781 µM	84.4	95.6	91.3
RPMI 5 mM glucose + 10% FBS, 0.00234 µM	88.7	95.6	96
RPMI 5 mM glucose + 10% FBS, 0.00702 µM	95.7	106	84.7
RPMI 5 mM glucose + 10% FBS, 0.0211 µM	91.6	102	93.5
RPMI 5 mM glucose + 10% FBS, 0.0632 µM	94.4	111	86
RPMI 5 mM glucose + 10% FBS, 0.19 µM	90.6	102	93.3
RPMI 5 mM glucose + 10% FBS, 0.569 µM	94.2	104	108
RPMI 5 mM glucose + 10% FBS, 1.71 µM	99.4	95.5	94.9
RPMI 5 mM glucose + 10% FBS, 5.12 µM	94.6	102	89.6
RPMI 5 mM glucose + 10% FBS, 15.4 µM	90.1	97.2	92.2
RPMI 5 mM glucose + 10% FBS, 46.1 µM	88.7	103	92.4
RPMI 5 mM glucose + 10% dialyzed FBS, 0.000781 µM	87.4	92.6	91.2
RPMI 5 mM glucose + 10% dialyzed FBS, 0.00234 µM	98.8	95.9	81.3
RPMI 5 mM glucose + 10% dialyzed FBS, 0.00702 µM	112	101	89.7
RPMI 5 mM glucose + 10% dialyzed FBS, 0.0211 µM	96	101	89.2
RPMI 5 mM glucose + 10% dialyzed FBS, 0.0632 µM	99.3	105	97.8
RPMI 5 mM glucose + 10% dialyzed FBS, 0.19 µM	101	106	87.4
RPMI 5 mM glucose + 10% dialyzed FBS, 0.569 µM	107	98.7	101
RPMI 5 mM glucose + 10% dialyzed FBS, 1.71 µM	88	102	93.7
RPMI 5 mM glucose + 10% dialyzed FBS, 5.12 µM	96.2	96.5	81.6
RPMI 5 mM glucose + 10% dialyzed FBS, 15.4 µM	89.9	101	101
RPMI 5 mM glucose + 10% dialyzed FBS, 46.1 µM	93.7	103	80.6

AUC of viability dose-response curve
Settings	NOMO1 [5]	P12-Ichikawa [6]	SEM cells [4]
HPLM + 10% dialyzed FBS	474	468	418
RPMI 5 mM glucose + 10% FBS	441	474	443
RPMI 5 mM glucose + 10% dialyzed FBS	464	465	431

Cc1coc2c1C(=O)C(=O)c1c-2ccc2c1CCCC2(C)C
cell viability [%]
Settings	NOMO1 [2]	P12-Ichikawa [3]	SEM cells [1]
HPLM + 10% dialyzed FBS, 0.000781 µM	111	103	112
HPLM + 10% dialyzed FBS, 0.00234 µM	98.8	106	98.6
HPLM + 10% dialyzed FBS, 0.00702 µM	126	109	104
HPLM + 10% dialyzed FBS, 0.0211 µM	118	116	102
HPLM + 10% dialyzed FBS, 0.0632 µM	107	106	96.8
HPLM + 10% dialyzed FBS, 0.19 µM	105	104	97
HPLM + 10% dialyzed FBS, 0.569 µM	92.9	93	97.1
HPLM + 10% dialyzed FBS, 1.71 µM	95.5	93.2	102
HPLM + 10% dialyzed FBS, 5.12 µM	82	94	99.6
HPLM + 10% dialyzed FBS, 15.4 µM	105	94.8	85.2
HPLM + 10% dialyzed FBS, 46.1 µM	96.8	99.8	87.4
RPMI 5 mM glucose + 10% FBS, 0.000781 µM	89.8	96.6	112
RPMI 5 mM glucose + 10% FBS, 0.00234 µM	98.7	98.3	108
RPMI 5 mM glucose + 10% FBS, 0.00702 µM	96.8	97.9	107
RPMI 5 mM glucose + 10% FBS, 0.0211 µM	104	95.3	109
RPMI 5 mM glucose + 10% FBS, 0.0632 µM	116	91	101
RPMI 5 mM glucose + 10% FBS, 0.19 µM	103	92.1	99.6
RPMI 5 mM glucose + 10% FBS, 0.569 µM	99.9	95.4	104
RPMI 5 mM glucose + 10% FBS, 1.71 µM	83.5	88.6	95.8
RPMI 5 mM glucose + 10% FBS, 5.12 µM	83.5	91.5	97.1
RPMI 5 mM glucose + 10% FBS, 15.4 µM	95.1	89.4	79.9
RPMI 5 mM glucose + 10% FBS, 46.1 µM	90.8	87.9	80.7
RPMI 5 mM glucose + 10% dialyzed FBS, 0.000781 µM	97.4	95.5	96.7
RPMI 5 mM glucose + 10% dialyzed FBS, 0.00234 µM	104	97.8	99.7
RPMI 5 mM glucose + 10% dialyzed FBS, 0.00702 µM	95.7	103	102
RPMI 5 mM glucose + 10% dialyzed FBS, 0.0211 µM	98.9	93.7	97.4
RPMI 5 mM glucose + 10% dialyzed FBS, 0.0632 µM	103	96.5	90.3
RPMI 5 mM glucose + 10% dialyzed FBS, 0.19 µM	88.8	87.7	88
RPMI 5 mM glucose + 10% dialyzed FBS, 0.569 µM	88.4	87.3	82.6
RPMI 5 mM glucose + 10% dialyzed FBS, 1.71 µM	87.5	87.8	76
RPMI 5 mM glucose + 10% dialyzed FBS, 5.12 µM	88.4	83.4	75.1
RPMI 5 mM glucose + 10% dialyzed FBS, 15.4 µM	92.5	84.7	78.4
RPMI 5 mM glucose + 10% dialyzed FBS, 46.1 µM	93.1	92.2	84.3

AUC of viability dose-response curve
Settings	NOMO1 [5]	P12-Ichikawa [6]	SEM cells [4]
HPLM + 10% dialyzed FBS	437	450	439
RPMI 5 mM glucose + 10% FBS	455	444	432
RPMI 5 mM glucose + 10% dialyzed FBS	450	438	421
